Test results published in paper doi:10.1101/2021.01.04.425289v1 (biorxiv, 2021).
Starred links: 1 amine or outer side, 2 acyl side, 3 side chain; linkers in the order of their positions; H or OH if unused. Residues, ends and D or L forms follow the SMILES beside them. CO = O=C([*:1])[*:2]

Target: Furin (Homo sapiens, UniProt P09958)
Assay: biochemical

Chain of Furin (P09958 whole entry): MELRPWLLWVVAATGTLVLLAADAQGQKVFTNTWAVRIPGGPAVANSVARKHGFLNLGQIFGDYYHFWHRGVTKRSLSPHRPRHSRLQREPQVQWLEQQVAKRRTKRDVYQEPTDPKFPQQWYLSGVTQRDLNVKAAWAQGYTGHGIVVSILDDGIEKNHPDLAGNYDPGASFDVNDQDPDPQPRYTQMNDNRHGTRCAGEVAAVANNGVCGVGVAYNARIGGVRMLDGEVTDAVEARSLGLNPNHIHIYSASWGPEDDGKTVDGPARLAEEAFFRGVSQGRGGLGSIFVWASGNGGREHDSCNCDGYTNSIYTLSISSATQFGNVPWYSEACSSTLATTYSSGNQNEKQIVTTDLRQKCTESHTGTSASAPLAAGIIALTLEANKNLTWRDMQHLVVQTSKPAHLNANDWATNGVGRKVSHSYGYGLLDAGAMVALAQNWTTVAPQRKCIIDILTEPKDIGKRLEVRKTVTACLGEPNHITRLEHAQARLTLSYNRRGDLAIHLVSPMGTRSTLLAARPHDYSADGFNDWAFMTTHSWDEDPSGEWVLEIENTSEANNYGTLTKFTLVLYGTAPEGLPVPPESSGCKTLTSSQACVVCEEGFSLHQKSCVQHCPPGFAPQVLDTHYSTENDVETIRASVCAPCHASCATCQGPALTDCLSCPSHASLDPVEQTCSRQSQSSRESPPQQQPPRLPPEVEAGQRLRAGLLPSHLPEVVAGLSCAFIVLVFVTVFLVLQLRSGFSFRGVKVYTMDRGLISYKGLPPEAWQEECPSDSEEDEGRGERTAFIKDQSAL

SMILES	IC50
CC(C)[C@H](NC(=O)[C@H](CCCNC(=N)N)NC(=O)N[C@@H](Cc1ccccc1)C(=O)O)C(=O)N[C@H](C=O)CCCNC(=N)N [Antipain] ({Phe-CO}-Arg-Val-Arg-aldehyde)	> 10 µM
CN(C)C(=O)COC(=O)Cc1ccc(OC(=O)c2ccc(NC(=N)N)cc2)cc1 [Camostat]	> 10 µM
